Results as given in patent US20150322033A1, “ANTIBACTERIAL AGENT” (priority 2012, published 2015).
Several values for one entry are separate records, joined by “and”; a condition that tells them apart may be missing. Equal values may be shown once. Read-outs that look alike come from different tables or passages of the source.

Assays:
GyrA(wt) + GyrB(wt) = biological target: T1, GyrA(wt) + GyrB(wt) (Staphylococcus aureus, UniProt P20831); experiment: DNA cleavage assay with GyrA(wt) and GyrB(wt); format: biochemical
T1 construct: made in house; host or cells: E. coli BL21(DE3)
From the text: The gene sequence encoding the wild-type GyrA of Staphylococcus aureus (henceforth also referred to as “GyrA(wt)”) shown as SEQ ID NO: 1 was cloned into the plasmid pMAL-c2 (produced by New England Biolabs) (the resultant is henceforth also referred to as “pMAL-c2-gyrA”).
The gene sequence encoding the wild-type GyrB of Staphylococcus aureus (henceforth also referred to as “GyrB(wt)”) shown as SEQ ID NO: 2 was cloned into the plasmid pMAL-c2 (produced by New England Biolabs) (the resultant is henceforth also referred to as “pMAL-c2-gyrB”).
(§1) E. coliBL21(DE3) (produced by Invitrogen) was transformed with pMAL-c2-gyrA mentioned above, with pMAL-c2-gyrB mentioned above, or with pMAL-c2-SAGAmut84 containing a mutant gyrA encoding the amino acid sequence of GyrA(wt) in which serine residue at the 84th position from the amino terminus is substituted with a leucine residue (see, Hiramatsu K., Igarashi M., Morimoto Y, Baba T., Umekita M., Akamatsu Y., Int. J. Antimicrob. Agents, 2012 June; 39(6), 478-85). To the culture medium of the resulting transformed Escherichia coli, 1 mM […] (produced by Wako Pure Chemical Industries) was added to induce expression of maltose-binding GyrA(wt), maltose-binding GyrB(wt), or maltose-binding mutant GyrA(S84L), and the bacterium was cultured overnight at 25° C. After completion of the culture, the cells were collected, and suspended in a buffer (20 mM Tris-HCl (pH 8.0), 200 mM sodium chloride, 1 mM ethylenediaminetetraacetic acid (EDTA), 1 mM dithiothreitol (DTT)), a protein extracting reagent (10× BugBuster (registered trademark), produced by Novagen) in a volume of 1/10 of the volume of the buffer, and 2.5 μL/10 mL of the buffer of Benzonase (registered trademark) nuclease (produced by Novagen) were added, the mixture was left standing at 25° C. for 30 minutes, and the cells were disrupted and lysed to obtain a disrupted cell suspension containing the maltose-binding GyrA(wt), maltose-binding GyrB(wt), or maltose-binding mutant GyrA(S84L).
(§2) Then, each disrupted cell suspension mentioned above was added to a column filled with an amylose resin covalently bound with maltose (produced by Novagen). A buffer (20 mM Tris-HCl (pH 8.0), 200 mM sodium chloride, 1 mM EDTA) containing 10 mM maltose was added to the column to elute the maltose-binding GyrA(wt), maltose-binding GyrB(wt), and maltose-binding mutant GyrA(S84L).
(§3) To each eluate, 4 units/1 mL of the eluate of protease (Factor Xa, produced by Amersham) was added, and the mixture was left standing at 25° C. for 3 hours and 30 minutes to cleave the maltose-binding proteins, GyrA(wt), GyrB(wt), and mutant GyrA(S84L) from the maltose-binding GyrA(wt), maltose-binding GyrB(wt), and maltose-binding mutant GyrA(S84L).
(§4) Then, GyrA(wt), GyrB(wt), and mutant GyrA(S84L) were concentrated by using an ultrafiltration unit (YM-50 Filter Unit, produced by Millipore).
(§5) The concentrated GyrA(wt), GyrB(wt), and mutant GyrA(S84L) were each suspended in a buffer (35 mM Tris-HCl (pH 7.5), 24 mM potassium chloride, 6 mM magnesium chloride, 1.8 mM spermidine, 0.36 mg/mL bovine serum albumin, 5 mM DTT, 50 volume % glycerol) at a concentration of 1 μg/μL for GyrA(wt), 2 μg/μL for GyrB(wt), or 1 μg/μL for mutant GyrA(S84L).
A substrate plasmid DNA, pTWV228 (0.4 μg, produced by Takara Bio), and levofloxacin (LVFX) or apigenin were added to a buffer (35 mM Tris-HCl (pH 7.5), 24 mM potassium chloride, 6 mM magnesium chloride, 1.8 mM spermidine, 0.36 mg/mL bovine serum albumin, 5 mM DTT), and 0.15 μL of the enzyme solution of GyrA(wt) and […] of the enzyme solution of GyrB(wt) were added to the mixture to prepare a reaction mixture in a total volume of 20
Levofloxacin was added at a final concentration of 0, 0.5, 1, 2, 4, 8, 16, or 32 μg/mL.
The aforementioned reaction solution was left standing at 25° C. for 30 minutes to allow the reaction. […]

GyrA(S84L) + GyrB(wt) = biological target: T2, GyrA(S84L) + GyrB(wt) (Staphylococcus aureus, UniProt P20831, S84L); experiment: DNA cleavage assay with mutant GyrA(S84L) and GyrB(wt); format: biochemical
T2 construct: made in house; host or cells: E. coli BL21(DE3)
From the text: as §1, §2, §3, §4, §5
An assay was performed in the same manner as that of the cleavage of the plasmid DNA with GyrA(wt) and GyrB(wt) mentioned above, provided that 0.15 μL of an enzyme solution of mutant GyrA(S84L) and 0.2 μL of the enzyme solution of GyrB(wt) were added instead of […] of the enzyme solution of GyrA(wt) and 0.2 μL of the enzyme solution of GyrB(wt). In FIGS. 3 and 4, the symbols “S”, “L”, and “N” have the same meanings as those explained for FIGS. 1 and 2.
IC50 value of levofloxacin or apigenin was also calculated from the visualized images shown in FIGS. 3 and 4 in the same manner as that used for the calculation using the results shown in FIGS. 1 and 2.
The DNA cleavage assay was performed with M-246 in the same manner as that used in Example 4.

Compound | Ratio of cleaved DNA (%) (GyrA(wt) + GyrB(wt); 2 μg/mL, Table 14) | Ratio of substrate plasmid DNA (%) (GyrA(wt) + GyrB(wt); 2 μg/mL, Table 14) | Ratio of cleaved DNA (%) (GyrA(wt) + GyrB(wt); 4 μg/mL, Table 14) | Ratio of substrate plasmid DNA (%) (GyrA(wt) + GyrB(wt); 4 μg/mL, Table 14) | Ratio of cleaved DNA (%) (GyrA(wt) + GyrB(wt); 8 μg/mL, Table 14) | Ratio of substrate plasmid DNA (%) (GyrA(wt) + GyrB(wt); 8 μg/mL, Table 14) | Ratio of cleaved DNA (%) (GyrA(wt) + GyrB(wt); 16 μg/mL, Table 14) | Ratio of substrate plasmid DNA (%) (GyrA(wt) + GyrB(wt); 16 μg/mL, Table 14) | Ratio of cleaved DNA (%) (GyrA(wt) + GyrB(wt); 32 μg/mL, Table 14) | Ratio of substrate plasmid DNA (%) (GyrA(wt) + GyrB(wt); 32 μg/mL, Table 14) | further results
C[C@H]1COc2c(N3CCN(C)CC3)c(F)cc3c(=O)c(C(=O)O)cn1c23 [Levofloxacin, levofloxacin, reference compound] | 58 | 42 | 61 | 39 | 64 | 36 | 70 | 30 | 67 | 33 | Ratio of cleaved DNA (%) (GyrA(wt) + GyrB(wt); 0.5 μg/mL, Table 14): 32%; Ratio of substrate plasmid DNA (%) (GyrA(wt) + GyrB(wt); 0.5 μg/mL, Table 14): 68%; Ratio of cleaved DNA (%) (GyrA(wt) + GyrB(wt); 1 μg/mL, Table 14): 43%; Ratio of substrate plasmid DNA (%) (GyrA(wt) + GyrB(wt); 1 μg/mL, Table 14): 57%; Ratio of cleaved DNA (%) (GyrA(wt) + GyrB(wt); 4 μg/mL, Table 18): 73%; Ratio of substrate plasmid DNA (%) (GyrA(wt) + GyrB(wt); 4 μg/mL, Table 18): 27%; IC50 (GyrA(wt) + GyrB(wt); Example 4, Table 14, from ratio of cleaved DNA, read-out: IC50 (μg/mL) GyrA(wt) + GyrB(wt) (converted)): 5.53 µM; IC50 (GyrA(S84L) + GyrB(wt); Example 4, Table 15, from ratio of cleaved DNA, read-out: IC50 (μg/mL) GyrA(S84L) + GyrB(wt)): > 88.6 µM
O=c1cc(-c2ccc(O)cc2)oc2cc(O)cc(O)c12 [No. 7, 4′,5,7-Trihydroxyflavone] | 34 | 66 | 35 | 65 | 36 | 64 | 35 | 65 | 40 | 60 | Ratio of cleaved DNA (%) (GyrA(wt) + GyrB(wt); 64 μg/mL, Table 14): 43%; Ratio of substrate plasmid DNA (%) (GyrA(wt) + GyrB(wt); 64 μg/mL, Table 14): 57%; inhibitory activity against the wild-type DNA gyrase (GyrA(wt) + GyrB(wt); FIG. 1 and 2): did not exhibit any inhibitory activity; IC50 (GyrA(wt) + GyrB(wt); IC50 (μg/mL) GyrA(wt) + GyrB(wt), Example 4, Table 14, from ratio of cleaved DNA): > 474 µM; IC50 (GyrA(wt) + GyrB(wt); IC50 GyrA(wt) and GyrB(wt), value in μM): > 474 µM; inhibitory activity against the mutant DNA gyrase (GyrA(S84L) + GyrB(wt); FIG. 3 and 4): concentration-dependent inhibitory activity; IC50 (GyrA(S84L) + GyrB(wt); IC50 (μg/mL) GyrA(S84L) + GyrB(wt), Example 4, Table 15, from ratio of cleaved DNA): ~29.6 µM and 29.6 µM; IC50 (GyrA(S84L) + GyrB(wt); IC50 mutant GyrA(S84L) and GyrB(wt), value in μM): ~29.6 µM
